Data on one molecule can be found in patent US9573911B2, “Diphosphate mimetics and uses thereof” (President and Fellows of Harvard College, priority 2011, dated 2017).

Holding throughout (assay): Kinase profiling, Invitrogen Z'-LYTE
Holding throughout (assay type): biochemical
Holding throughout (conditions): Table 2

The target in assay [1] is T1, MAPK12 (p38 gamma) (Homo sapiens, UniProt P53778).
T1 construct: purchased Invitrogen
T1 sequence (P53778 1-367): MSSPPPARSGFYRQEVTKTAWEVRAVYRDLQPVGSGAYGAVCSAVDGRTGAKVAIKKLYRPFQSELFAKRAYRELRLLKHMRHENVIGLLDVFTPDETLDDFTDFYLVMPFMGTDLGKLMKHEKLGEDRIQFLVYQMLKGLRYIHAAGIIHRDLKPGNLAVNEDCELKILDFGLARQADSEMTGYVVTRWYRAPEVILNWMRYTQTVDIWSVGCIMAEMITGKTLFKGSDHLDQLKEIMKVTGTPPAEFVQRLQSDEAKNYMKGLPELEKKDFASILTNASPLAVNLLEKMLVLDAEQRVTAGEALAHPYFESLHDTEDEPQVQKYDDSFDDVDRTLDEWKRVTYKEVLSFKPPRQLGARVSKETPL
How it is done:
(§1) Kinase profiling was conducted using Invitrogen Z'-LYTE screening protocol and assay conditions found at www.invitrogen.com. Compound (2) inhibited PLK1 completely at 5 μM.

For assay [2], the target named is T2, MST1R (RON) (Homo sapiens, UniProt Q04912).
T2 construct: purchased Invitrogen
How it is done: as §1

Assay [3] addresses T3, AURKA (Aurora A) (Homo sapiens, UniProt O14965).
T3 construct: purchased Invitrogen
T3 sequence (O14965 1-403): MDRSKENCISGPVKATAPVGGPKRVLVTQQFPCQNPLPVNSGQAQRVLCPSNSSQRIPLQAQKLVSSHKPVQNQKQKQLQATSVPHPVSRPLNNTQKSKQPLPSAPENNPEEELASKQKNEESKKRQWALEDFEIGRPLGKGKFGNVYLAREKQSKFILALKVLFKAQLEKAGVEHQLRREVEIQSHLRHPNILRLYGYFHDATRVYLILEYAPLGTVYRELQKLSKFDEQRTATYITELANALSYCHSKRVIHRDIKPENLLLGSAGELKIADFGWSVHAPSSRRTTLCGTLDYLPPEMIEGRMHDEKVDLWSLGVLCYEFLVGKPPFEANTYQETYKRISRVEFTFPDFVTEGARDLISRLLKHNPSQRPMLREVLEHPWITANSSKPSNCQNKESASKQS
Here is the method:
as §1

Assay [4] has as its target T4, FLT3 D835Y (Homo sapiens, UniProt P36888, D835Y).
T4 construct: purchased Invitrogen
T4 sequence (P36888 27-993 D835Y): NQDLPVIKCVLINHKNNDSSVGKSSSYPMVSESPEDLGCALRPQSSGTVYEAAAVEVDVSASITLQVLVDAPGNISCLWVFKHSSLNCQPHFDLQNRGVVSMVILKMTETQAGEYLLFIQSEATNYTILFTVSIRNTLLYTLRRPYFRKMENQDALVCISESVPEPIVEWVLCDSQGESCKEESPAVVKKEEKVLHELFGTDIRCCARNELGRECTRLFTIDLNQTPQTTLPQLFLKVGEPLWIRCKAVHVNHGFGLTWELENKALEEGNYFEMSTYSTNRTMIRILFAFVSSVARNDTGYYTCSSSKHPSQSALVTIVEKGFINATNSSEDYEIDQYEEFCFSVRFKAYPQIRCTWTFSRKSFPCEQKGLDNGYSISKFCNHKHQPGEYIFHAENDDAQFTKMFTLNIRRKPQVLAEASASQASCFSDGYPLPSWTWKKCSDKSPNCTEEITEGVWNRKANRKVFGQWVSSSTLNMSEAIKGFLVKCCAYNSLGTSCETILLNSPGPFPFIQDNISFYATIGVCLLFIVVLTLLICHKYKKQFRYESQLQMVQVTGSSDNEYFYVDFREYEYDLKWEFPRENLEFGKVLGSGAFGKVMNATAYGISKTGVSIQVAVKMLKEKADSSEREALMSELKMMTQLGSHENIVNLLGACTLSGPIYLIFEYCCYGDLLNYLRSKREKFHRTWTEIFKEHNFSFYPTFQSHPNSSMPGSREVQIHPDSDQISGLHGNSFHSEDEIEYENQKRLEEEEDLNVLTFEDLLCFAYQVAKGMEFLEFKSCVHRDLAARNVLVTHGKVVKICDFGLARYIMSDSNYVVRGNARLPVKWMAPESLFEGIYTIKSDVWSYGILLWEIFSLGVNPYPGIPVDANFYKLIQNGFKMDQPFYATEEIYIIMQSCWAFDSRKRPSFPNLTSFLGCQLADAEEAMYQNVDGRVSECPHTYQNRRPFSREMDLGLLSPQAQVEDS
Here is the method: as §1

Assay [5] has as its target T5, PRKX (Homo sapiens, UniProt P51817).
T5 construct: purchased Invitrogen
T5 sequence (P51817 1-358): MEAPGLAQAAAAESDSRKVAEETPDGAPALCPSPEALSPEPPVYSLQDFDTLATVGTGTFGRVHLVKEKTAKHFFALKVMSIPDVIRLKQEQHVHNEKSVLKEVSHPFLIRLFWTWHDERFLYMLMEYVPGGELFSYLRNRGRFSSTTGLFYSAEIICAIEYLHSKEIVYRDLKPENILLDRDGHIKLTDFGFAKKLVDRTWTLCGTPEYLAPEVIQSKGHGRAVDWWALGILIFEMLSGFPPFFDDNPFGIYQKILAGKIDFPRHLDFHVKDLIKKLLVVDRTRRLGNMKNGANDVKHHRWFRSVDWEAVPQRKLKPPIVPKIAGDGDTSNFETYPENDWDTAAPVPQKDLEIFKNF
Here is the method: as §1

Assay [6] addresses T6, SGKL (SGK3) (Homo sapiens, UniProt Q96BR1).
T6 construct: purchased Invitrogen
T6 sequence (Q96BR1 1-496): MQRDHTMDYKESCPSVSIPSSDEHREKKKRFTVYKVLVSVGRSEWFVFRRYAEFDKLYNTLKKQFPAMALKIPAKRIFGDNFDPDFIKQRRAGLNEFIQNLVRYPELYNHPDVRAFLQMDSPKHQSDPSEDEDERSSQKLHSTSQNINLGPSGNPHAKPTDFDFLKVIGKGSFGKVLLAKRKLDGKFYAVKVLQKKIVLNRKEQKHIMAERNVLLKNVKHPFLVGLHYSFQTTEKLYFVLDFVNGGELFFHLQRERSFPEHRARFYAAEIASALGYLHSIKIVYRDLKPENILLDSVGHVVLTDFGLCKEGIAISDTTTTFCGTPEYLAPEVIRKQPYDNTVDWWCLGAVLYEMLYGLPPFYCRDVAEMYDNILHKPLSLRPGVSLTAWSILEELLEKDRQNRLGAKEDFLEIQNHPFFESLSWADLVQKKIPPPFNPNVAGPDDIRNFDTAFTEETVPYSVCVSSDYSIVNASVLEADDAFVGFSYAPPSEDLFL
How it is done:
as §1

T2 sequence (Q04912 25-1400): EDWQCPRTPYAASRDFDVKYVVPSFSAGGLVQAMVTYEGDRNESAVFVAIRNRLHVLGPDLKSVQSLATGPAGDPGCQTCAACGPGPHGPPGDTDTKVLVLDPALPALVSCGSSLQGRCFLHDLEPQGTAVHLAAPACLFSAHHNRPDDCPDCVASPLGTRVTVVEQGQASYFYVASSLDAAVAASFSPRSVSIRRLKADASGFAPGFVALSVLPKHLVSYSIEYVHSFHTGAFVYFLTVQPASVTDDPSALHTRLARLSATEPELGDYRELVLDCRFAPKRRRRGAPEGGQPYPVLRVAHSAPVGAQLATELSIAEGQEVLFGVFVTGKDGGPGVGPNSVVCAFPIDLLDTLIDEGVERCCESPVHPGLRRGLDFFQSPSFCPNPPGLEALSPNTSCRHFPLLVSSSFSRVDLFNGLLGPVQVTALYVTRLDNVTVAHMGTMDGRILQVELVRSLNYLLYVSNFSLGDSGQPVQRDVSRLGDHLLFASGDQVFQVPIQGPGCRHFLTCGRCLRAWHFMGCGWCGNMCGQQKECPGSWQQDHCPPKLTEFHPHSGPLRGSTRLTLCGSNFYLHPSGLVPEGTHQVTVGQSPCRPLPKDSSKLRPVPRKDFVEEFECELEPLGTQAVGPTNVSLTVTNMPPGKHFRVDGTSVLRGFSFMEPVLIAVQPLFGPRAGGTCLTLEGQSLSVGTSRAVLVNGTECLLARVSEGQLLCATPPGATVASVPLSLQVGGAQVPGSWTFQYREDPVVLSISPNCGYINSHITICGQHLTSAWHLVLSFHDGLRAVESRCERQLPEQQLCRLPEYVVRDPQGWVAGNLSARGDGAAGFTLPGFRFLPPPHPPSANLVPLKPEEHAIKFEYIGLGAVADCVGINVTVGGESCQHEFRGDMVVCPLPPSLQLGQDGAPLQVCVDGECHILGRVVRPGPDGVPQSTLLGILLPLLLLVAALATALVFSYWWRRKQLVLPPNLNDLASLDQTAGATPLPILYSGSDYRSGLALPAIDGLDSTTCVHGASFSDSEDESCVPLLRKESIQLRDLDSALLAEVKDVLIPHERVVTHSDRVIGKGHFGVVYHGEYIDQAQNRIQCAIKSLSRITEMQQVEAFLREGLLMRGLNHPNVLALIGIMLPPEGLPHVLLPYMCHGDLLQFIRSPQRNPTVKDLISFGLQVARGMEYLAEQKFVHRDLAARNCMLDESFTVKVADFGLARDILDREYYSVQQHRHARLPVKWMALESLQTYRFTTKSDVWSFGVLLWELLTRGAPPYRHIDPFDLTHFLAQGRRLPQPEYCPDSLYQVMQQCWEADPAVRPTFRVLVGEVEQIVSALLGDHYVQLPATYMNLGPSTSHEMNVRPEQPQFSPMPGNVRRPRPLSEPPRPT

`COc1ccc(OC(=O)n2c(=O)oc3cc(C(C)=O)ccc32)cc1` [Compound 2]: the “% Inhibition Point 1” value is reported as −203% in assay [1]; −258% in assay [2]; −146% in assay [3]; −41% in assay [4]; −135% in assay [5]; −140% in assay [6]. For the same molecule, the “% Inhibition Point 2” value in assay [1] is recorded as −203%; in assay [2], −245%; in assay [3], −146%; in assay [4], −43%; in assay [5], −134%; in assay [6], −150%. The “% Inhibition mean” value is recorded as −203% in assay [1]; −252% in assay [2]; −146% in assay [3]; −42% in assay [4]; −135% in assay [5]; −145% in assay [6].
